Reference: PMC9865163, “Structural Basis of the Inhibition of L-Methionine γ-Lyase from Fusobacterium nucleatum” (International Journal of Molecular Sciences, 2023)
Structures can show the parent of a compound that is named as a salt. Where two headings read alike, the source gives them in different places. Where a SMILES comes first, the peptide text is derived from it. The star is where a group is joined. PhAc = O=C(Cc1ccccc1)*

Experiments:
Fn1419 [1] = target: T1, Fn1419 (Fusobacterium nucleatum subsp. nucleatum, UniProt Q8RDT4); type: biochemical
T1 construct: Fn1419 (GeneBank: AAL95612.1, residues 1–395); His-tag (N); made in house; host or cells: E. coli BL21 (DE3)
T1 sequence (Q8RDT4 whole entry, the tested form may be a part): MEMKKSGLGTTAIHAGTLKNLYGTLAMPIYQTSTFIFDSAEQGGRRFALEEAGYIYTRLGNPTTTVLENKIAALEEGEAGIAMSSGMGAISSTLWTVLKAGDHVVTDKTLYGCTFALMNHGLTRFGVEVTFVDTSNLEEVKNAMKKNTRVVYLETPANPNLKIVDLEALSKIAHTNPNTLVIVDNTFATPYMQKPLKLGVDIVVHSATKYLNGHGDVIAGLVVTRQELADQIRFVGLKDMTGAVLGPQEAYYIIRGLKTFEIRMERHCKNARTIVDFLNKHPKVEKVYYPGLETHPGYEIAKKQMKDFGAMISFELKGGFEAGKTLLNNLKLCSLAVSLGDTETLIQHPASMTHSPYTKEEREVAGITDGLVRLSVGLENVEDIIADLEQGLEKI
Procedure: MGL^Cys activity of Fn1419 was measured as previously reported. Fn1419 (5.75 nM) in assay buffer (40 mM potassium phosphate, pH 7.6, and 10 μM PLP) was mixed with various concentrations of L-cysteine (25, 50, 100, 200, 400, 800, or 1000 μM) and incubated for 15 min at 37 °C. H2S, the reaction product, was then detected based on methylene blue formation. Specifically, 100 μL of solution A (the enzyme reaction solution), 20 μL of solution B (20 mM N′,N′-dimethyl-p-phenylenediamine dihydrochloride and 7.2 M HCl), and 20 μL of solution C (30 mM FeCl3 and 1.2 M HCl) were mixed, and the mixture incubated for 30 min at room temperature.
(§1) Then, 500 μM L-cysteine was added, and the reaction was allowed to proceed for 5 min at 37 °C. The amount of produced H2S was detected indirectly, based on the formation of methylene blue. The reaction mixture consisted of solution A (100 μL), solution B (20 μL), and solution C (20 μL) (the solution composition is described at the enzyme assays) and was incubated for 30 min at 20 °C. The amount of generated methylene blue was detected at 670 nm, using a SpectraMax 190 Microplate Reader (Molecular Devices, San Jose, CA, USA) at 25 °C.

[2] = not told; cited from earlier work
Fn1419 [3] = target: T1, Fn1419; assay: IC50 determination on MGL^Cys activity of Fn1419; type: biochemical
Procedure: as §1
The concentration of the enzyme was 5.75 nM and the concentration of the six above-mentioned compounds was 500 μM. IC50 values were eventually calculated from non-linear regression curves fitted.

[4] = in vivo; cited from earlier work
Mannheimia haemolytica = Mannheimia haemolytica strains; cited from earlier work
Fn1220 = assay: Inhibitory effect of gallic acid on H2S production of Fn1220; type: biochemical, Fusobacterium nucleatum; settings: 500 μM gallic acid, 5.75 nM enzyme
Procedure: as §1

Fn1055 = assay: Inhibitory effect of gallic acid on H2S production of Fn1055; type: biochemical, Fusobacterium nucleatum; settings: 500 μM gallic acid, 5.75 nM enzyme
Procedure: as §1

[5] = tested on: antibiotic-resistant S. aureus; settings: antibiotic-resistant S. aureus strains; cited from earlier work
E. coli = E. coli strains; cited from earlier work
Pasteurella multocida = Pasteurella multocida strains; cited from earlier work
[6] = 100 μM compound, 5.75 nM Fn1419, 500 μM L-cysteine
[7] = 5.75 nM enzyme, preincubation 20 min at 20 °C, read-out: IC50 (Fn1419 MGL^Cys activity)

Compound | product increase rate (MGL^Cys activity of Fn1419 enhanced) (Fn1419 [1]; [6]) [%] | effect on MGL^Cys enzyme activity of Fn1419 (in words) (Fn1419 [1]; [6]) | further results
N[C@@H](Cc1c[nH]c2ccc(O)cc12)C(=O)O [5-hydroxyl tryptophan] | 53.0 | – | –
O=C(O)C1(O)C[C@@H](O)C(O)[C@H](O)C1 (stereo partly drawn) [D-quinic acid] | 35.1 | – | –
O.O.O.O.O.OC[C@H]1O[C@H](OC[C@H]2O[C@H](O[C@]3(CO)O[C@H](CO)[C@@H](O)[C@@H]3O)[C@H](O)[C@@H](O)[C@@H]2O)[C@H](O)[C@@H](O)[C@H]1O [D-raffinose pentahydrate] | 72.5 | – | –
NCCCC(=O)O [GABA] | 9.9 | – | –
C[N+](C)(C)C[C@H](O)CC(=O)[O-] [L-carnitine] | – | did not significantly affect enzyme activity | –
N[C@@H](CCC(=O)O)C(=O)O [L-glutamate] | – | did not significantly affect enzyme activity | –
COc1cc2c(cc1OC)[C@@H]1Cc3ccc(OC)c(OC)c3CN1CC2 [L-tetrahydropal matrine] | 71.7 | – | –
CC(=O)N[C@@H](CS)C(=O)O [N-acetyl-cysteine] | – | – | product reduction rate (MGL^Cys activity of Fn1419) (Fn1419 [1]; [6]): 12%
CC(=O)O[C@H](CC(=O)O)C[N+](C)(C)C.[Cl-] [acetyl L-carnitine HCl] | – | not significantly affected | –
O=c1cc(-c2ccc(O)cc2)oc2cc(O)cc(O)c12 [apigenin] | – | not significantly affected | –
C[N+](C)(C)CC(=O)O [betaine-HCl] | 24 | – | –
O=C(/C=C/c1ccc(O)c(O)c1)O[C@@H]1C[C@](O)(C(=O)O)C[C@@H](O)[C@H]1O [chlorogenic acid] | – | did not significantly affect enzyme activity | –
C[N+](C)(C)CCO.O=C([O-])C(O)C(O)C(=O)O (stereo not shown) [choline bitartrate] | – | – | product increase rate (MGL^Cys activity of Fn1419 enhanced) (Fn1419 [1]): 13.3%
C[N+](C)(C)CCOP(=O)([O-])OP(=O)([O-])OC[C@H]1O[C@@H](n2ccc(N)nc2=O)[C@H](O)[C@@H]1O.[Na+] [citicoline sodium] | – | did not significantly affect enzyme activity | –
Nc1ncnc2c1ncn2[C@@H]1O[C@H](CO)C[C@H]1O [cordycepin] | – | did not significantly affect enzyme activity | –
CN(CC(=O)O)C(=N)N.O [creatine monohydrate] | – | – | product reduction rate (MGL^Cys activity of Fn1419) (Fn1419 [1]; [6]): 11.2%
COc1cc(/C=C/C(=O)CC(=O)/C=C/c2ccc(O)c(OC)c2)ccc1O [curcumin] | – | – | product reduction rate (MGL^Cys activity of Fn1419) (Fn1419 [1]; [6]): 53.9%
O=C1c2c(O)cc(O)cc2O[C@H](c2cc(O)c(O)c(O)c2)[C@H]1O [dihydromyricetin] | – | – | permeability [2]: low; product reduction rate (MGL^Cys activity of Fn1419) (Fn1419 [1]; [6]): 89.5%; IC50 (Fn1419 [3]; [7]): 23 µM; bioavailability [4]: poor
OC[C@@H](O)[C@@H](O)CO [erythritol] | 16.4 | – | –
CCOC(=O)c1cc(O)c(O)c(O)c1 [ethyl gallate] | – | – | product reduction rate (MGL^Cys activity of Fn1419) (Fn1419 [1]; [6]): 81.9%; IC50 (Fn1419 [3]; [7]): 517 µM
COc1cc(C(=O)O)cc(OC)c1OC [gallic acid trimethyl ether] | – | did not affect | –
O=C(O)c1cc(O)c(O)c(O)c1 [gallic acid] | – | – | growth inhibition (in words) (Mannheimia haemolytica): strongly inhibits the growth; inhibition of Fn1220 (in words) (Fn1220): did not inhibit; inhibition of Fn1055 (in words) (Fn1055): did not inhibit; growth inhibition (in words) [5]: strongly inhibits the growth; product reduction rate (MGL^Cys activity of Fn1419) (Fn1419 [1]; [6]): 84.8%; IC50 (Fn1419 [3]): 121 µM; growth inhibition (in words) (E. coli): strongly inhibits the growth; growth inhibition (in words) (Pasteurella multocida): strongly inhibits the growth

Compound | product increase rate (MGL^Cys activity of Fn1419 enhanced) (Fn1419 [1]; [6]) [%] | effect on MGL^Cys enzyme activity of Fn1419 (in words) (Fn1419 [1]; [6]) | further results
CN(C)CCc1ccc(O)cc1.Cl [hordenine HCl] | 32.1 | – | –
OCc1c[nH]c2ccccc12 [indole-3-carbinol] | – | not significantly affected | –
O[C@H]1[C@H](O)[C@@H](O)[C@H](O)[C@@H](O)[C@H]1O [inositol] | – | did not significantly affect enzyme activity | –
O=c1c(O)c(-c2ccc(O)cc2)oc2cc(O)cc(O)c12 [kaempferol] | – | – | product reduction rate (MGL^Cys activity of Fn1419) (Fn1419 [1]; [6]): 40.4%
O=C1CCC[C@@H]2[C@H]3CCCN4CCC[C@@H](CN12)[C@@H]34 [matrine] | 4.9 | – | –
COC(=O)c1cc(O)c(O)c(O)c1 [methyl gallate] | – | – | product reduction rate (MGL^Cys activity of Fn1419) (Fn1419 [1]; [6]): 81.5%
O=C(O)c1cccnc1 [niacin] | – | – | effect on MGL^Cys enzyme activity of Fn1419 (in words) (Fn1419 [1]): did not significantly affect enzyme activity
CCOC(=O)CNC(=O)[C@@H]1CCCN1C(=O)Cc1ccccc1 [noopept] (PhAc-Pro-Gly-OEt) | 21.8 | – | –
CCCCCCCC/C=C\CCCCCCCC(N)=O [oleamide] | 24.6 | – | –
O=C(O)/C=C/c1ccc(O)cc1 [p-coumaric, p-coumaric acid] | – | not significantly affected | –
Cl.NCC(CC(=O)O)c1ccccc1 (stereo not shown) [phenibut HCl] | 61.8 | – | –
NC(=O)CN1CC(c2ccccc2)CC1=O (stereo not shown) [phenylpiracetam] | – | did not significantly affect enzyme activity | –
C/C=C/C=C/C(=O)[O-].[K+] [potassium sorbate] | – | – | product reduction rate (MGL^Cys activity of Fn1419) (Fn1419 [1]): 5.3%
Cc1ncc(CO)c(CO)c1O [pyridoxine-HCl] | – | did not significantly affect enzyme activity | –
Oc1cccc(O)c1O [pyrogallic acid] | – | – | product reduction rate (MGL^Cys activity of Fn1419) (Fn1419 [1]; [6]): 89.8%; IC50 (Fn1419 [3]): 57 µM
C[C@@H]1O[C@@H](OC[C@H]2O[C@@H](Oc3c(-c4ccc(O)c(O)c4)oc4cc(O)cc(O)c4c3=O)[C@H](O)[C@@H](O)[C@@H]2O)[C@H](O)[C@H](O)[C@H]1O [rutin] | – | – | product reduction rate (MGL^Cys activity of Fn1419) (Fn1419 [1]; [6]): 18.2%
CNCC(O)c1ccc(O)cc1 (stereo not shown) [synephrine] | – | – | product reduction rate (MGL^Cys activity of Fn1419) (Fn1419 [1]; [6]): 32.4%
O=C1O[C@H]([C@@H](O)CO)C(O)=C1O [vitamin C] | – | did not significantly affect enzyme activity | –
OC[C@@H](O)[C@H](O)[C@@H](O)CO [xylitol] | – | did not significantly affect enzyme activity | –
O=C(O)CCCCC1CCSS1 (stereo not drawn) [α-lipoic acid] | – | not significantly affected | –
chondroitin sulfate | 5.8 | – | –
